Non-standard residues stand in square brackets, D forms with d. Residues, ends and D or L forms follow the SMILES beside them. d(pT) = C[C@H](OP(=O)(O)O)[C@@H](N)C(=O)O
Experiments:
Impα3 = target: T1, Impα3 (Homo sapiens, UniProt O00629); assay: Biolayer interferometry (BLI) binding to Impα3; conditions: peptide 1–10 μM, 25 °C; for kon: BLItz, Impα3 immobilized via His-tag (0.25 μM), 10 × kinetics buffer, error from pseudo-first order fit, at least two repeats, read-out: kon; for koff: Impα3 immobilized via His-tag, error from pseudo-first order fit (Equation 5)
T1 construct: Human importin α3 isoform (residues 1–521); made in house
T1 sequence (O00629 1-521): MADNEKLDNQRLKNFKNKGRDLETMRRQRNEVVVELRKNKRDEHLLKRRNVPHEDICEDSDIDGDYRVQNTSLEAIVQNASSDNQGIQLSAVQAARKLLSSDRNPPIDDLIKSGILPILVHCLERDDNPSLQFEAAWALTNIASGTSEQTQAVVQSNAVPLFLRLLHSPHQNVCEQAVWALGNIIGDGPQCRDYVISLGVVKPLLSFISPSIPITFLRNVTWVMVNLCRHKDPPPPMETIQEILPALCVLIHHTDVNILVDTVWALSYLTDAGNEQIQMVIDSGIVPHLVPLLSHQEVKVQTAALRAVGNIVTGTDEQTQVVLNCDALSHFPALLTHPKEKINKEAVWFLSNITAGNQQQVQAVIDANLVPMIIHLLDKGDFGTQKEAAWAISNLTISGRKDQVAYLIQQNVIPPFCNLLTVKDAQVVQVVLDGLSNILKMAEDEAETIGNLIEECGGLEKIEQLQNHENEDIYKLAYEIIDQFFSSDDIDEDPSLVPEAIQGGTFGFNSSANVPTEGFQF
Experimental: (§1) The association (kon) and dissociation (koff) rate constants of the binding of D-NLS peptides to either Impα3 or ∆Impα3 were determined by using a BLItz system (ForteBio, Pall, Barcelona, Spain). The buffer used in the experiments was that recommended by the manufacturer. […] The peptide concentrations were in a range from 1 to 10 μM during the association step. The general scheme of the protein association/dissociation reactions in the BLItz system for the D-NLS peptides was as follows: 30 s of initial baseline acquisition with the 10 × kinetics buffer (provided by the manufacturer); 120 s of loading either Impα3 and ∆Impα3 into the biosensor; 30 s of baseline acquisition with the 10 × kinetics buffer; 120 s of association of each peptide to the biosensor (which had been previously loaded with the importin species); and 120 s of monitoring of the dissociation of each peptide from the biosensor. All experiments were carried out at 25 °C.
(§2) Fittings of the BLI sensorgrams was carried out by using KaleidaGraph, as previously described. The interferometry response during the association step, R(t) (measured in response units, RU), and the binding rate, dR(t)/dt, could be used to evaluate the kinetics of the formation of the complex between Impα3/∆Impα3 and each D-NLS, according to:(2) dR/dt=konD-NLSRmax−Rt−koffR(t) where Rmax is proportional to the total concentration of biosensor-bound importin species; and [D-NLS] represents the concentration of the corresponding D-NLS peptide.
(§3) In Equation (2), R(t) is given by:(3) Rt= Req−Reqe^(−kobs t−t0) where Req is the steady-state (or equilibrium) response obtained at infinite time, when dR(t)/dt = 0, and t0 = 180 s is the time at which the association step between biosensor-immobilized Impα3/∆Impα3 and D-NLS in the solution started. We fitted the experimentally obtained R(t) under any condition as:(4) Rt= Req−Reqe^−kobs t−t0−R’eq(t−t0) where R^′eq was included to consider the lineal drift observed at longer times.
(§4) The dissociation process was always fitted to a single exponential, with R(t) given by:(6) Rt=R1 e^(−kofft−t0)−R^″eq(t−t0) where t0 = 300 is the time at which the dissociation of the D-NLS from the biosensor-bound Impα3/∆Impα3 started in our experimental set-up, R1 is the response level when dissociation starts, and the parameter R^″eq considers the linear drift observed at longer times.
(§5) The experiments were repeated at least twice for each peptide with each importin species.

[1] = Translational diffusion NMR (DOSY) of NLS peptides; assay type: physicochemical; conditions: ~100 μM peptide, 50 mM deuterated Tris pH 7.2, 100% D2O, 10 °C
Source text: For the four peptides, we measured the experimental value of D for dioxane ranging from (1.2 ± 0.1) × 10^−5 to (1.05 ± 0.02) × 10^−5 cm^2 s^−1 in each solution containing the corresponding peptide; we assumed a hydrodynamic radius of 2.12 Å for dioxane (Table 1) under any condition. […] Furthermore, the values of D were similar for the D- and L-peptides, and the latter were already being described as disordered. Thus, we can conclude that the four D-peptides were monomeric and disordered, like the L-form counterparts, and, then, there was no difference in the hydrodynamic properties of the peptides by changing the enantiomeric nature of the residues.
The NMR spectra were acquired at 10 °C on a Bruker Avance III spectrometer (Bruker GmbH, Mannheim, Germany), equipped with a triple-resonance probe and z-pulse field gradients. All NMR experiments with D-NLS peptides were carried out in 50 mM deuterated Tris buffer (not corrected for isotope effects), pH 7.2. Spectra were calibrated with TSP, by considering pH-dependent changes in its chemical shifts; probe temperature was calibrated with pure methanol.
The typical D-NLS peptide concentrations in DOSY experiments were ~100 μM, and 128 scans were acquired, in which the gradient strength was varied linearly in sixteen steps, between 2 and 95% of the total power of the gradient coil. Measurements of the translational self-diffusion coefficient, D, were performed with the pulsed-gradient spin-echo sequence in the presence of 100% D2O. Details on the experimental conditions and fitting of the resulting curves have been described elsewhere. Gradient strength was calibrated by using the value of D for the residual proton water signal in a sample containing 100% D2O, in a 5 mm tube [23]. Gradient length was 2.5 ms; the time between the two pulse gradients in the sequence was 250 ms; and the recovery delay between the bipolar gradients was 100 μs. The signals from methyl groups between 0.8 and 1.0 ppm were used for peak integration, for all the D-NLS peptides. A final concentration of 1% of dioxane, which was assumed to have a hydrodynamic radius Rh of 2.12 Å [23], was added to the solution of each peptide.

∆Impα3 = target: T2, ∆Impα3 (Homo sapiens, UniProt O00629); assay: Biolayer interferometry (BLI) binding to ∆Impα3; conditions: peptide 1–10 μM, 25 °C; for kon: BLItz, ∆Impα3 immobilized via His-tag (0.25 μM), 10 × kinetics buffer, error from pseudo-first order fit, at least two repeats, read-out: kon; for koff: ∆Impα3 immobilized via His-tag, error from pseudo-first order fit (Equation 5)
T2 construct: IBB-depleted species of Impα3 (residues 64–521 of the intact protein); made in house
T2 sequence (O00629 64-521): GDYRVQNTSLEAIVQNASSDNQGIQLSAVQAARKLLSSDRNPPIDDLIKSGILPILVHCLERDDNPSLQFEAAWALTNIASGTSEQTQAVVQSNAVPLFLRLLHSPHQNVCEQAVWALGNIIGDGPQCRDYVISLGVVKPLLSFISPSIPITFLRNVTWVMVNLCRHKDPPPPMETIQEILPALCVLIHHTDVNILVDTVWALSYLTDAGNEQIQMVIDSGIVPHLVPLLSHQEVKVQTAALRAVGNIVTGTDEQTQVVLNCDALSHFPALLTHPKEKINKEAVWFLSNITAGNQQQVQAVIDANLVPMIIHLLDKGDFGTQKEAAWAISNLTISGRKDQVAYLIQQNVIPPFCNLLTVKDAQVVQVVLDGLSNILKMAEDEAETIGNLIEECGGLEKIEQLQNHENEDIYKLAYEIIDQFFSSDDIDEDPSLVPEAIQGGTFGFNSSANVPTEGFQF
Experimental: as §1, §2, §3, §4, §5

With `CC(=O)N[C@H](Cc1ccc(O)cc1)C(=O)N[C@@H](C(=O)N[C@H](CC(N)=O)C(=O)N[C@H](CCCNC(=N)N)C(=O)N1CCC[C@@H]1C(=O)N[C@H](CO)C(=O)N1CCC[C@@H]1C(=O)NCC(=O)NCC(=O)N[C@H](Cc1c[nH]cn1)C(=O)N[C@H](CCC(=O)O)C(=O)N[C@H](CCCNC(=N)N)C(=O)N[C@H](CCCCN)C(=O)N[C@H](CC(C)C)C(=O)N[C@@H](C(=O)N[C@@H](C(=O)N[C@H](CCCCN)C(=O)N[C@H](CC(C)C)C(=O)N[C@H](CCC(N)=O)C(=O)N[C@H](CC(N)=O)C(=O)N[C@H](CO)C(=O)N[C@H](CCC(=O)O)C(N)=O)[C@H](C)OP(=O)(O)O)C(C)C)[C@H](C)O` [D-NLS-NUPR1phospho] (Ac-[dY][dT][dN][dR][dP][dS][dP]GG[dH][dE][dR][dK][dL][dV][d(pT)][dK][dL][dQ][dN][dS][dE]-NH2) the kon (Impα3) was 10000 ± 3000 M⁻¹ s⁻¹, the koff (Impα3) was 0.13 ± 0.02 s⁻¹ and the “Diffusion coefficient D” value [1] was 2.2 ± 0.2 cm^2 s^−1 × 10^6. The kon (∆Impα3) was 6000 ± 1000 M⁻¹ s⁻¹ and the koff (∆Impα3) was 0.05 ± 0.01 s⁻¹.
In the case of `CC[C@@H](C)[C@@H](NC(=O)[C@@H](CCCCN)NC(=O)[C@@H](CCC(N)=O)NC(=O)[C@@H](CCC(N)=O)NC(=O)[C@@H](CCCCN)NC(=O)[C@@H](CCCCN)NC(=O)[C@@H](CCCCN)NC(=O)[C@@H](CCCCN)NC(=O)[C@H](NC(=O)CNC(=O)[C@@H](CCC(=O)O)NC(=O)[C@@H](Cc1ccccc1)NC(=O)[C@@H](CC(C)C)NC(=O)[C@@H](CC(C)C)NC(=O)[C@@H](C)NC(=O)[C@@H](CCC(=O)O)NC(=O)CNC(=O)[C@@H](Cc1c[nH]cn1)NC(=O)CNC(=O)[C@@H](CCC(=O)O)NC(=O)[C@@H](CC(N)=O)NC(=O)[C@@H](CCC(N)=O)NC(=O)[C@@H](CCC(N)=O)NC(=O)[C@@H](CCC(=O)O)NC(=O)[C@@H](CCC(N)=O)NC(=O)[C@@H](Cc1ccccc1)NC(=O)[C@@H](CC(C)C)NC(=O)[C@@H](CCCCN)NC(C)=O)[C@H](C)CC)C(N)=O` [D-NLS-PADI] (Ac-[dK][dL][dF][dQ][dE][dQ][dQ][dN][dE]G[dH]G[dE][dA][dL][dL][dF][dE]G[dI][dK][dK][dK][dK][dQ][dQ][dK][dI]-NH2), the kon (Impα3) is reported as 45000 ± 20000 M⁻¹ s⁻¹, the koff (Impα3) is reported as 0.6 ± 0.1 s⁻¹ and the “Diffusion coefficient D” value [1] is reported as 1.0 ± 0.1 cm^2 s^−1 × 10^6. It also gave a kon (∆Impα3) of 60000 ± 10000 M⁻¹ s⁻¹ and a koff (∆Impα3) of 0.37 ± 0.05 s⁻¹.
